The target of assay [1] is T1, Signal transducer and activator of transcription 3 (Homo sapiens, UniProt P40763). As to the kind of experiment: Inhibition of STAT3 (unknown origin).
For assay [2], the system named is HCT-116. As to the kind of experiment: Cytotoxicity against human HCT-116 cells measured after 72 hrs by WST-1 assay. The settings on record: HCT-116, 72 h. The assay is classed as functional, cell-based. (In general: Tetrazolium assays rely on reduction of a dye to a coloured formazan, in cell work by metabolically active cells.)
For assay [3], the system named is SW-620. As to the kind of experiment: Antiproliferative activity against human SW620 cells incubated for 72 hrs by CCK-8 method. It counts as functional.
In assay [4] the test system is HCT-116. As to the kind of experiment: Antiproliferative activity against human HCT-116 cells incubated for 72 hrs by CCK-8 method. It counts as functional.
Assay [5] has as its target P2X purinoceptor 7 (Homo sapiens, UniProt Q99572). As to the kind of experiment: Antagonist activity at P2X7R (unknown origin).
Assay [6] has as its system SW-620. Description: Antiproliferative activity against human SW620 cells assessed as inhibition of cell growth by CellTiter 96 Aqueous One Solution Cell Proliferation Assay. The assay is classed as functional, cell-based.
Assay [7] concerns LoVo. Description: Antiproliferative activity against human LoVo cells assessed as inhibition of cell growth by CellTiter 96 Aqueous One Solution Cell Proliferation Assay. The assay is classed as functional, cell-based.
The test system of assay [8] is SW480. As to the kind of experiment: Antiproliferative activity against human SW480 cells assessed as inhibition of cell growth by CellTiter 96 Aqueous One Solution Cell Proliferation Assay. The assay is classed as functional, cell-based.
Assay [9] deals with RKO. As to the kind of experiment: Antiproliferative activity against human RKO cells assessed as inhibition of cell viability measured upto 96 hrs by CCK-8 method. It counts as functional.
The subject of assay [10] is HCT-116. As to the kind of experiment: Cytotoxicity against human HCT-116 cells assessed as inhibition of cell proliferation measured after 24 hrs by MTT assay. The note with it: HCT-116, 24 h. It counts as functional, cell-based.
For assay [11], the target named is T1, Signal transducer and activator of transcription 3. As to the kind of experiment: Binding affinity to N-terminal his tagged recombinant human STAT3 expressed in insect cells assessed as dissociation constant by biolayer interferometry assay. Also noted: species or system Insect cell. (In general: In BLI a coated tip is dipped into the sample, and binding shifts an interference pattern.)

The test system of assay [12] is RKO. As to the kind of experiment: Cytotoxicity against human RKO cells assessed as inhibition of cell proliferation measured after 24 hrs by MTT assay. It counts as functional, cell-based.
The test system of assay [13] is SW-620. Description: Antiproliferative activity against human SW620 cells incubated for 48 hrs by CCK-8 method. The assay is classed as functional, cell-based. The settings on record: SW-620, 48 h.
The test system of assay [14] is HT-29. Description: Antiproliferative activity against human HT-29 cells incubated for 48 hrs by CCK-8 method. The settings on record: HT-29, 48 h. It counts as functional, cell-based.
Assay [15] deals with RKO. Description: Antiproliferative activity against human RKO cells assessed as inhibition of cell growth. The assay is classed as functional, cell-based.
Assay [16] deals with HCT-116. As to the kind of experiment: Cytotoxicity against human HCT-116 cells assessed as inhibition of cell proliferation measured after 72 hrs by SRB method. The assay is classed as functional, cell-based. On the technique in general: In SRB staining, fixed cells bind dye roughly in proportion to their protein.
Assay [17] deals with HCT-116. Description: Antiproliferative activity against human HCT-116 cells assessed as reduction in cell viability measured after 24 hrs by CCK-8 method. The settings on record: HCT-116, 24 h. The assay is classed as functional, cell-based.
Assay [18] relates to SW-620. As to the kind of experiment: Antiproliferative activity against human SW620 cells assessed as reduction in cell viability measured after 24 hrs by CCK-8 method. The assay is classed as functional, cell-based. The note with it: SW-620, 24 h.
The subject of assay [19] is HCT-116. As to the kind of experiment: Cytotoxicity against p53 null human HCT-116 cells measured after 72 hrs. The assay is classed as functional, cell-based. The note with it: HCT-116, 72 h.
The subject of assay [20] is RKO. Description: Cytotoxicity against human RKO cells measured after 72 hrs. The assay is classed as functional, cell-based.
Assay [21] relates to HT-29. Description: Cytotoxicity against human HT-29 cells measured after 72 hrs. It counts as functional, cell-based. The note with it: HT-29, 72 h.
In assay [22] the test system is SW48. As to the kind of experiment: Cytotoxicity against human SW48 cells measured after 72 hrs. The settings on record: SW48, 72 h. The assay is classed as functional, cell-based.
Assay [23] concerns HCT-116. Description: Cytotoxicity against human HCT-116 cells measured after 72 hrs. The assay is classed as functional, cell-based. The note with it: HCT-116, 72 h.

T1 sequence (P40763 whole entry): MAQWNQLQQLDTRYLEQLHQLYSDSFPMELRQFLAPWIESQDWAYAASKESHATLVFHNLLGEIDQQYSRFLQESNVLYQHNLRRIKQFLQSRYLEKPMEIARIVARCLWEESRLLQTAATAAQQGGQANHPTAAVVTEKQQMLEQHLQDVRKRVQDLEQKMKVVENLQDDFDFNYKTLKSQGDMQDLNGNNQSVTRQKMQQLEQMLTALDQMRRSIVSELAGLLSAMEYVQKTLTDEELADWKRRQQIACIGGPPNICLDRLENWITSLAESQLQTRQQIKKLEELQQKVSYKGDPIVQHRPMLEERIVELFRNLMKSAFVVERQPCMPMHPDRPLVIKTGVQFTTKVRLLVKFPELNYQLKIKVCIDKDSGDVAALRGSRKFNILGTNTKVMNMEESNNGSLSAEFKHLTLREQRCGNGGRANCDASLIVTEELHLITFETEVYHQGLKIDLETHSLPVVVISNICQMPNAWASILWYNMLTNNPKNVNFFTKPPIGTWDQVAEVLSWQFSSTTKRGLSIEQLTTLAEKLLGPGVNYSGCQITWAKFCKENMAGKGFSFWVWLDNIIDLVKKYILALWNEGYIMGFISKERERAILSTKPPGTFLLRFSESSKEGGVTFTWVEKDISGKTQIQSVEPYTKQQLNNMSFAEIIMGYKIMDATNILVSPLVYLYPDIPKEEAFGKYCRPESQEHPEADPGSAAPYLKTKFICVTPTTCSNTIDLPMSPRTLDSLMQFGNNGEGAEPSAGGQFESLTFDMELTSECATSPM
P2X purinoceptor 7, sequence (Q99572 whole entry): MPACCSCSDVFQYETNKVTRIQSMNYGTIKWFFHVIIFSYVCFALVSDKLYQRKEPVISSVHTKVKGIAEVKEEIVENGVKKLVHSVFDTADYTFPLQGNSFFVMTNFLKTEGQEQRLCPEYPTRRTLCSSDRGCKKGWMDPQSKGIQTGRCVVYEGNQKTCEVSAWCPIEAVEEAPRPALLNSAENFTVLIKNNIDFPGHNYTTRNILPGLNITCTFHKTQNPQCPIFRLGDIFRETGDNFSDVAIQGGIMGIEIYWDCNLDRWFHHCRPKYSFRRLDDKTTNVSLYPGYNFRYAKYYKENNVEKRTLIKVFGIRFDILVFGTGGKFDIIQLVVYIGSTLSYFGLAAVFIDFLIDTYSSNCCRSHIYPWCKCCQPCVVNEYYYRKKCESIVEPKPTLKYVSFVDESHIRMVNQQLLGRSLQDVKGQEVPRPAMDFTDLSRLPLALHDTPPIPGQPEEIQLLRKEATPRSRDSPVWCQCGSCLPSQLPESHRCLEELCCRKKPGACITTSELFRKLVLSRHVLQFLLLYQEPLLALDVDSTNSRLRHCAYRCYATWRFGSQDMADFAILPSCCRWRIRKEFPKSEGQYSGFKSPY

Usually IC50 stands for the concentration that inhibits the measured activity by half. Regarding `COC(=O)[C@@]12OC[C@]34[C@H]([C@@H](O)[C@@H]1O)[C@@]1(C)CC(=O)C(O)=C(C)[C@@H]1C[C@H]3OC(=O)[C@H](OC(=O)/C=C(\C)C(C)(C)OC(C)=O)[C@@H]24`, the half-maximal inhibitory concentration (IC50) in assay [1] turned out to be 2.4 pM; in assay [2] it was 18.7 µM.
Take `Clc1cccc(-c2nnnn2Cc2cccnc2)c1Cl`: the IC in assay [3] and in [4] was 10 µM each time. For the same compound, inhibition in assay [5] was half-maximal at 0.13 µM (IC50).
For `CC(C)=CCc1cc(-c2coc3cc(O)c(CC=C(C)C)c(O)c3c2=O)cc(O)c1O`, the IC50 in assay [6] came out at 7.33 µM; in [7] it was 7.05 µM; in assay [8], 6.97 µM.
`CCN(CC)C(=S)SSC(=S)N(CC)CC` [DISULFIRAM]: the IC in assay [9] came to 0.1 µM.
One may read the Kd as the free concentration of one partner at which half of the binding sites on the other are occupied at equilibrium, for simple one-to-one binding. Regarding `Cc1ccc(COc2ccc3c(c2)C(=O)C(=O)C2=C3OC(C)C2)cc1` (stereo not drawn), the half-maximal inhibitory concentration (IC50) in [10] was determined as 4.07 µM; in assay [12], 3.78 µM. Also, the Kd in assay [11] was 6.6 µM.
For `CC(C)c1onc(-c2c(Cl)cccc2Cl)c1COc1ccc(/C=C/c2cccc(C(=O)O)c2)c(Cl)c1`, the half-inhibitory concentration (IC50) in [13] came out at 7.6 µM; in assay [14], 13.8 µM.
Take `COc1cc(-c2[o+]c3cc(O)cc(O[C@@H]4O[C@H](CO)[C@@H](O)[C@H](O)[C@H]4O)c3cc2O[C@@H]2O[C@H](CO[C@@H]3O[C@@H](C)[C@H](OC(=O)/C=C/c4ccc(O)cc4)C[C@H]3O)[C@@H](O)[C@H](O)[C@H]2O)cc(O)c1O`: the IC50 in assay [15] amounted to 172 µM.
Turning to `C/C=C\C(=O)O[C@@H]1C[C@H]2O[C@@H]3C=C(C)C(=O)C[C@]3(C)[C@]1(C)[C@]21CO1` [TRICHOTHECIN], the IC50 in [16] worked out at 0.25 µM.
Take `CCC(C)/C=C(\C)[C@H]1C(C)=C[C@@]2(C)C[C@@H](C)CC[C@@H]2[C@H]1C(=O)C1=C/C(=C/c2ccc(O)cc2)NC1=O` (stereo partly drawn) [TALAROCONVOLUTIN A]: the IC50 in assay [17] was 9.23 µM; in [18], 5.82 µM.
Regarding `O=C(O)CCCCC1CCSS1` (stereo not drawn) [LIPOIC ACID, ALPHA], the concentration for half-maximal inhibition (IC50) in assay [19] came to 890 µM; in assay [20], 266 µM; in assay [21] it was 266 µM; in [22], 266 µM; in assay [23] it was 266 µM.

(Values after ChEMBL document CHEMBL5512605, “Targeted regulated cell death with small molecule compounds in colorectal cancer: Current perspectives of targeted therapy and molecular mechanisms” (Eur J Med Chem, 2024).)
